The IC50 is the concentration that gives 50% inhibition.

For one assay, the target named is T1, PTGER4 (EP4) (Homo sapiens, UniProt P35408).
T1 construct: host or cells: HEK 293 (PathHunter PTGER4 b-arrestin cell line)
Description: hEP4 b-arrestin assay (PathHunter HEK 293 PTGER4 b-arrestin cells). It counts as cell-based. The conditions noted are these: antagonistic activity, beta-arrestin assay; read-out: hEP4 b-arr IC50. The procedure, abridged: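 PathHunter HEK 293 cells expressing ProLink-tagged human EP4 and EA-β-arrestin 2, seeded 24 h before. Compounds (10 μM–2 nM or 1 μM–0.2 nM) preincubated 15 min at 37 °C, then 20 nM PGE2 (EC80) for 120 min at 37 °C. β-gal complementation luminescence read; IC50 from duplicate dose-response curves versus DMSO control.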

For a further assay, the target named is T2, EP2 receptor (Homo sapiens, UniProt P43116).
T2 construct: SF295 glioblastoma cells express high endogenous EP2 and no EP4; host or cells: SF295 glioblastoma cells
T2 sequence (P43116 whole entry): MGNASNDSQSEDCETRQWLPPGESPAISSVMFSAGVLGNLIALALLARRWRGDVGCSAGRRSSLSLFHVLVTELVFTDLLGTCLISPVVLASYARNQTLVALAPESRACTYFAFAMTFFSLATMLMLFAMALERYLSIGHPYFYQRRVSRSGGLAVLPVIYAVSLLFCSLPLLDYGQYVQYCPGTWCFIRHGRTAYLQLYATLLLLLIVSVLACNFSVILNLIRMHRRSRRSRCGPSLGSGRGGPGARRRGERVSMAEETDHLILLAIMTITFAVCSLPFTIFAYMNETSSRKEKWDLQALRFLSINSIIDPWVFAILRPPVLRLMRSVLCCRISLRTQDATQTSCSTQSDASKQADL
Description: hEP2 cAMP assay (SF295 glioblastoma cells, HTRF cAMP, PGE2 stimulation). The conditions noted are these: antagonistic activity. It counts as cell-based. Summed up: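 SF295 glioblastoma cells with endogenous EP2 and no EP4, in HBSS/HEPES/BSA with 2 mM IBMX, pre-incubated 45 min at room temperature with compound, then stimulated 30 min with 75 nM PGE2 (EC80). cAMP measured by HTRF; IC50 fitted from duplicate % cAMP versus DMSO control.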
For orientation: Changes in cAMP serve as a functional read-out for many G protein-coupled receptors.

T1 sequence (P35408 whole entry): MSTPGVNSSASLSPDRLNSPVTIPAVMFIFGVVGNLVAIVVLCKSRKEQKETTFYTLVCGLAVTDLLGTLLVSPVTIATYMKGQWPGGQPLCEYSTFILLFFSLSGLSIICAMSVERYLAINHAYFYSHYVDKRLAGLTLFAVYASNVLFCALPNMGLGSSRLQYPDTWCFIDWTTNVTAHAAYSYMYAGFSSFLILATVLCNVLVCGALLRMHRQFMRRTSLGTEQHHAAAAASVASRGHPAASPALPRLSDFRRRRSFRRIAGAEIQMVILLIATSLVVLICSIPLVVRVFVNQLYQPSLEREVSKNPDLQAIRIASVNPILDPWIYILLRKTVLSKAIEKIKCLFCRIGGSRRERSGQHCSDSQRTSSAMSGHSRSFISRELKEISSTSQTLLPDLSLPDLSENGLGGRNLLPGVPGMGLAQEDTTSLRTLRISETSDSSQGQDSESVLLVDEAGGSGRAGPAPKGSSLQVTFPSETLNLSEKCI

`CCCc1cc(-c2cc(NCCc3c(C)sc4c(C)cc(F)cc34)ncn2)ccc1CC(=O)O` [Example 186, (4-{6-[2-(5-Fluoro-2,7-dimethyl-benzo[b]thiophen-3-yl)-ethylamino]-pyrimidin-4-yl}-2-propyl-phenyl)-acetic acid]: the results for the IC50 at PTGER4 (EP4) and against EP2 receptor were 242 nM and 309 nM, respectively.
For `CCOc1cc(-c2cc(NCCc3c(C)sc4c(C)cc(F)cc34)ncn2)ccc1C(=O)C(=O)O` [Example 189, (2-Ethoxy-4-{6-[2-(5-fluoro-2,7-dimethyl-benzo[b]thiophen-3-yl)-ethylamino]-pyrimidin-4-yl}-phenyl)-oxo-acetic acid], in that order: 92 nM and 27 nM.
For `CCCOc1cc(-c2cc(NCCc3c(C)sc4c(C)cc(F)cc34)ncn2)ccc1CC(=O)O` [Example 190, (4-{6-[2-(5-Fluoro-2,7-dimethyl-benzo[b]thiophen-3-yl)-ethylamino]-pyrimidin-4-yl}-2-propoxy-phenyl)-acetic acid], in that order: 200 nM and 274 nM.

Values taken from patent publication US11325899B2, “Benzofurane and benzothiophene derivatives as PGE2 receptor modulators” (IDORSIA PHARMACEUTICALS LTD, priority 2017, dated 2022).
